pIC50: −log10 of the molar value. In brackets after ≈: the same amount, converted by molar mass.
Tests used:
[1] = test system: CCRF-CEM; test: Cytotoxicity against human CCRF-CEM cells; format: functional; conditions: read-out: ED50 (the source's name)
[2] = test system: K562; test: Cytotoxicity against human K562 cells; format: functional; conditions: read-out: ED50 (the source's name)
[3] = test system: HL-60(TB); test: Cytotoxicity against human HL-60(TB) cells; format: functional; conditions: read-out: ED50 (the source's name)
[4] = Cytotoxicity against human 95-D cells by SRB assay; format: functional, cell-based
[5] = test system: MKN-1; test: Antiproliferative activity against human MKN1 cells assessed as reduction in cell viability after 24 hrs by CCK8 assay; format: functional, cell-based; conditions: MKN-1, 24 h
[6] = Antiproliferative activity against human SNU601 cells assessed as reduction in cell viability after 24 hrs by CCK8 assay; format: functional, cell-based; conditions: SNU-601, 24 h
[7] = test system: HL-60; test: Antiproliferative activity against human HL60 cells assessed as cell viability at 150 uM by MTT assay relative to control; format: functional; conditions: read-out: Activity
[8] = test system: U-87 MG; test: Induction of apoptosis in human U87MG cells assessed as increase in apoptotic cells at 50 uM after 24 hrs by Annexin V-FITC/propidium iodide staining based flow cytometric analysis relative to control; format: functional, U-87MG ATCC
[9] = test system: AGS; test: Antiproliferative activity against human AGS cells assessed as reduction in cell viability after 24 hrs by CCK8 assay; format: functional, cell-based
[10] = Antiproliferative activity against human SNU484 cells assessed as reduction in cell viability after 24 hrs by CCK8 assay; format: functional, cell-based; conditions: SNU-484, 24 h
[11] = test system: SNU-638; test: Antiproliferative activity against human SNU638 cells assessed as reduction in cell viability after 24 hrs by CCK8 assay; format: functional, cell-based; conditions: SNU-638, 24 h
[12] = test system: PC-14; test: Induction of apoptosis in human PC14 cells assessed as increase in apoptotic cells at 30 uM after 24 hrs by Annexin V-FITC/propidium iodide staining based flow cytometric analysis relative to control; format: functional
[13] = Cytotoxicity against human U373 cells assessed as reduction in cell viability after 24 hrs by MTT assay; format: functional, cell-based, U-373MG ATCC; conditions: U373 MG
[14] = Cytotoxicity against human U251/CP2 cells assessed as reduction in cell viability after 24 hrs by MTT assay; format: functional, cell-based; conditions: U-251, 24 h
[15] = test system: C6; test: Induction of apoptosis in rat C6 cells assessed as apoptotic cells at 200 uM after 24 hr in presence of holo-transferrin by Annexin V-FITC/propidium iodide staining based flow cytometric analysis relative to control; format: functional
[16] = test system: HCT-116; test: Induction of apoptosis in human HCT116 cells assessed as increase in apoptotic cells at 40 uM after 24 hrs by Annexin V-FITC/propidium iodide staining based flow cytometric analysis relative to control; format: functional
[17] = test system: U-937; test: Antitumour activity against human U937 cells xenografted in NOD/SCID mouse assessed as tumor growth inhibition at 50 mg/kg, ip for 20 days relative to control; format: functional; conditions: U-937, ip, 480 h, read-out: TGI
[18] = test system: U-937; test: Induction of apoptosis in human U937 cells assessed as increase in apoptotic cells at 60 uM after 24 hrs by Annexin V-FITC/propidium iodide staining based flow cytometric analysis relative to control; format: functional
[19] = test system: BHY; test: Antiproliferative activity against human BHY cells assessed as reduction in cell viability after 48 hrs by MTT assay; format: functional, cell-based
[20] = test system: MCF7; test: Antiproliferative activity against human MCF7 cells assessed as reduction in cell viability after 48 hrs by MTT assay; format: functional, cell-based; conditions: MCF7, 48 h
[21] = test system: A549; test: Antiproliferative activity against human A549 cells assessed as reduction in cell viability after 48 hrs by MTT assay; format: functional, cell-based; conditions: A549, 48 h
[22] = test system: A-431; test: Cytotoxicity against human A431 cells assessed as reduction in cell viability incubated for 24 hrs by MTT assay; format: functional, cell-based; conditions: A-431, 24 h
[23] = test system: B16-F10; test: Cytotoxicity against mouse B16F10 cells assessed as reduction in cell viability incubated for 24 hrs by MTT assay; format: functional, cell-based; conditions: B16-F10, 24 h
[24] = test system: COLO 205; test: Antiproliferative activity against human COLO205 cells assessed as reduction in cell viability after 48 hrs by MTT assay; format: functional, cell-based; conditions: COLO 205, 48 h
[25] = test system: MIA PaCa-2; test: Antiproliferative activity against human MIAPaCa2 cells assessed as reduction in cell viability after 48 hrs by MTT assay; format: functional, cell-based; conditions: MIA PaCa-2, 48 h
[26] = test system: HepG2; test: Cytotoxicity against human HepG2 cells after 24 hrs by MTT assay; format: functional, cell-based; conditions: HepG2, 24 h
[27] = test system: NCI-H460; test: Cytotoxicity against human NCI-H460 cells after 24 hrs by MTT assay; format: functional, cell-based; conditions: NCI-H460, 24 h
[28] = test system: MCF7; test: Cytotoxicity against human MCF7 cells after 24 hrs by MTT assay; format: functional, cell-based; conditions: MCF7, 24 h
[29] = test system: DU-145; test: Growth inhibition of human DU145 cells at 200 uM after 24 hrs by WST-1 assay relative to control; format: functional; conditions: DU-145, 24 h, read-out: GI
[30] = test system: HL-60; test: Antiproliferative activity against human HL60 cells assessed as reduction in cell viability after 3 days by XTT assay; format: functional, cell-based; conditions: HL-60, 72 h
[31] = test system: HCT-116; test: Cytotoxicity against human p53 positive HCT116 cells assessed as reduction in cell viability after 48 hrs by MTT assay; format: functional; conditions: HCT-116, 48 h, read-out: LD50 (the source's name)
[32] = test system: MCF-10A; test: Induction of apoptosis n human MCF10A transformed with RAS gene at 100 uM by flow cytometric analysis relative to control; format: functional
[33] = test system: THP-1; test: Cytotoxicity against human THP1 cells after 48 hrs by trypan blue dye exclusion counting method; format: functional, cell-based; conditions: THP-1, 48 h
[34] = Antitumour activity against mouse mammary cancer cells transplanted in Balb/c mouse assessed as tumour size at 6 mg/kg, ip for 13 days; format: functional

C=C1C(=O)O[C@@H]2O[C@@]3(C)CC[C@H]4[C@H](C)CC[C@@H]1[C@@]24O3 [DEOXYARTEMISITENE]
EC50 [1]: 0.92 µg/mL (≈ 3.48 µM)
EC50 [2]: 0.94 µg/mL (≈ 3.56 µM)
EC50 [3]: 0.62 µg/mL (≈ 2.35 µM)

CC1(C)CCC[C@@]2(C)[C@H]1[C@H](O)C=C1COC(=O)[C@@]12O [STROBILACTONE A]
pIC50 [4]: 4.70

COc1ccc(-c2cc(=O)c3c(O)c(OC)c(O)cc3o2)cc1OC [EUPATILIN]
pIC50 [5]: 4.00 to 4.30
pIC50 [6]: 4.00 to 4.30
viability at 150 µM [7]: 50%
Activity [8]: 40%
pIC50 [9]: 4.00 to 4.30
pIC50 [10]: 4.00 to 4.30
pIC50 [11]: 4.00 to 4.30

C[C@H]1[C@@H](O)O[C@@H]2O[C@@]3(C)CC[C@H]4[C@H](C)CC[C@@H]1[C@@]24OO3 [ARTENIMOL]
Activity [12]: 45%
IC50 [13]: 1.17 to 23.6 µg/mL (≈ 4.11 to 82.9 µM)
IC50 [14]: 1.17 to 23.6 µg/mL (≈ 4.11 to 82.9 µM)
Activity [15]: 66.42%
Activity [16]: 48.3%
inhibition in vivo at 50 mg/kg [17]: 70%
Activity [18]: 70%

C=C1C(=O)O[C@H]2[C@H]1CCC(C)=C1C[C@H]3O[C@@]3(C)[C@@H]12 [LUDARTIN]
pIC50 [19]: 4.06 to 4.60
pIC50 [20]: 4.06 to 4.60
pIC50 [21]: 4.06 to 4.60
pIC50 [22]: 4.72
pIC50 [23]: 5.18
pIC50 [24]: 4.06 to 4.60
pIC50 [25]: 4.06 to 4.60

CC1=CC(=O)C2=C(C)C[C@@H](O[C@@H]3O[C@H](CO)[C@@H](O)[C@H](O)[C@H]3O)[C@@H]3[C@@H](OC(=O)[C@H]3C)[C@@H]12
pIC50 [26]: 4.31 to 4.57
pIC50 [27]: 4.31 to 4.57
pIC50 [28]: 4.31 to 4.57

COc1c(O)cc2oc(Oc3ccc(O)cc3)cc(=O)c2c1O
inhibition of growth at 200 µM [29]: 20%
IC50 [30]: 1.1 to 40.7 µg/mL (≈ 3.48 to 129 µM)

CCCCCCCCCCCCCCCCCCCCCCOC(=O)/C=C/c1ccc(O)cc1
CC50 [31]: 33.8 µM

COc1cc(-c2cc(=O)c3c(O)c(OC)c(O)cc3o2)ccc1O [JACEOSIDINE]
Activity [32]: 48.72%
pIC50 [33]: 4.15

CCO[C@H]1O[C@@H]2O[C@@]3(C)CC[C@H]4[C@H](C)CC[C@@H]([C@H]1C)[C@@]24OO3 [ARTEMOTIL]
Activity [34]: 800 mm3

Source: ChEMBL document CHEMBL4342436, “Artemisia: a promising plant for the treatment of cancer” (Bioorg Med Chem, 2020)
